Data from patent US9458132B2, “Therapeutic compounds and compositions and their use as PKM2 modulators” (AGIOS PHARMACEUTICALS, INC., priority 2012, dated 2016).

What was measured:
PKR R510Q = PKR R510Q (Homo sapiens, UniProt P30613, R510Q); experiment: PKR mutant assay, PKR R510Q AC50; format: biochemical; conditions: mutant PKR R510Q enzyme
Method: (§1) • PKR or PKR mutant enzyme solution was diluted in assay buffer. • 2 μL of test compound was added into wells first, and then 180 μL reaction mix was added. • Reactions mixture with test compound was assembled except for ADP, and plates were stored for 60 minutes at room temperature. • 20 uL ADP was added to start reaction at room temperature and reaction progress was measured as changes in absorbance at 340 nm wavelength at room temperature.
Test Compound Preparation: • Test compound stock was made at 100x concentration in 100% DMSO (10 mM) • 1 to 3 dilutions were made for 11 points (i.e. 50 μl of first concentration added to 100 μl 100% DMSO to yield 3.33 mM, 50 μl of this added to 100 μl DMSO to yield 1.11 mM, and so forth) • 1 to 100 dilution into assay (2 μl in 200 μl) yielded starting concentration of 100 μM, decreasing 3 fold for 11 points • Assay Buffer: 100 mM KCl, 50 mM Tris 7.5, 5 mM MgCl2, 1 mM DTT, 0.03% BSA • Reaction Mixture: PKR mutant enzyme: 80-400 ng/well; ADP: 0.22-1.65 mM; PEP: 0.1-0.5 mM; NADH:180 uM; LDH: 0.5 units (Sigma#59023); DTT: 1 mM; BSA: 0.03%. […]

PKR WT [1] = target: T1, PKR WT (Homo sapiens, UniProt P30613); experiment: PKR WT enzymatic assay AC50; format: biochemical; conditions: wild type PKR
T1 sequence (P30613 whole entry): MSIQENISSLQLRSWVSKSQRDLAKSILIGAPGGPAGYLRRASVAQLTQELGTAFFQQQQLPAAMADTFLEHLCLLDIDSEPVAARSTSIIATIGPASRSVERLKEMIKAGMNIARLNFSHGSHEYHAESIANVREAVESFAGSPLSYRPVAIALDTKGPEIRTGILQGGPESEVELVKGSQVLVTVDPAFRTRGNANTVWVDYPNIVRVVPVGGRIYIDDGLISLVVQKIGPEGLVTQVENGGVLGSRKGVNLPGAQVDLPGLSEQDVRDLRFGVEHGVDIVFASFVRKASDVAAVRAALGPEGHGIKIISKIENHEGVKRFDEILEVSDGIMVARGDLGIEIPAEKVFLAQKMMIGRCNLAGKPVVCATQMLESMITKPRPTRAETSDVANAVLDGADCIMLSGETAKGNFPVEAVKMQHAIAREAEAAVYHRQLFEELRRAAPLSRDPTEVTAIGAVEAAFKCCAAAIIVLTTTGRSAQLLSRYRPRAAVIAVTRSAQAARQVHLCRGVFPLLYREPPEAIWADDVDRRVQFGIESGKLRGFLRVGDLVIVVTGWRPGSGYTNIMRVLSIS
Method: as §1
(§2) Test Compound Preparation: • Test compound stock was made at 100x concentration in 100% DMSO (10 mM) • 1 to 3 dilutions were made for 11 points (i.e. 50 μl of first concentration added to 100 μl 100% DMSO to yield 3.33 mM, 50 μl of this added to 100 μl DMSO to yield 1.11 mM, and so forth) • 1 to 100 dilution into assay (2 μl in 200 μl) yielded starting concentration of 100 μM, decreasing 3 fold for 11 points • Assay Buffer: 100 mM KCl, 50 mM Tris 7.5, 5 mM MgCl2, 1 mM DTT, 0.03% BSA • Reaction Mixture: PKR mutant enzyme: 80-400 ng/well; ADP: 0.22-1.65 mM; PEP: 0.1-0.5 mM; NADH:180 uM; LDH: 0.5 units (Sigma#59023); DTT: 1 mM; BSA: 0.03%.
(§3) A compound described herein was diluted with DMSO and tested at 1 μM concentration. The enzyme was diluted in 1× Buffer: (100 mM KCl, 50 mM Tris 7.5, 5 mM MgCl2, 1 mM DTT, 0.03% BSA). 2 μL of compound solution was first added into wells, and then 180 μL of enzyme solution was added. Assays were assembled except for ADP, and plates were stored for 60 minutes at RT. 20 μL ADP was added to start the assay and assay output was evaluated using OD340 at SpectraMax. The assay was run at room temperature. • Final concentration: PKR wt (100 ng/well), Tris pH 7.5 (50 mM), KCl (100 mM), MgCl2 (5 mM), ADP (0.48 mM), PEP (0.15 mM), NADH (180 μM), LDH (0.5 units, Sigma 59023), DTT (1 mM) and BSA (0.03%).

PKR WT [2] = target: T1, PKR WT; experiment: PKR WT cell based assay AC50; conditions: wild type PKR
PKR R532W = PKR R532W (Homo sapiens, UniProt P30613, R532W); experiment: PKR mutant assay, PKR R532W AC50; format: biochemical; conditions: mutant PKR R532W enzyme
Chain of PKR R532W (P30613 whole entry R532W): as the sequence (P30613 whole entry) above, with R532W counted along it
Method: as §1, §2
as §3, with “R532W” for “wt”, “(0.36” for “(0.48”, “(0.1” for “(0.15”

Chain of PKR R510Q (P30613 whole entry R510Q): as the sequence (P30613 whole entry) above, with R510Q counted along it

SMILES | AC50 (PKR R510Q) [nM] | AC50 (PKR WT [1]) [nM] | AC50 (PKR WT [2]) [nM] | AC50 (PKR R532W) [nM]
O=C(c1ccc(NS(=O)(=O)c2cccc3cccnc23)cc1)N1CC(O)(c2ccccc2OC(F)(F)F)C1 [Compound 7, N-(4-(3-hydroxy-3-(2-(trifluoromethoxy)phenyl)azetidine-1-carbonyl)phenyl)quinoline-8-sulfonamide] | 101 to 1000 | 101 to 1000 | 101 to 1000 | < 100
O=C(c1ccc(NS(=O)(=O)c2cccc3cccnc23)cc1)N1CC(O)(c2cccc(Cl)c2)C1 [Compound 11, N-(4-(3-(3-chlorophenyl)-3-hydroxyazetidine-1-carbonyl)phenyl)quinoline-8-sulfonamide] | 101 to 1000 | < 100 | 101 to 1000 | < 100
O=C(c1ccc(NS(=O)(=O)c2cccc3cccnc23)cc1)N1CC(O)(c2cccc(OC(F)(F)F)c2)C1 [Compound 10, N-(4-(3-hydroxy-3-(3-(trifluoromethoxy)phenyl)azetidine-1-carbonyl)phenyl)quinoline-8-sulfonamide] | 101 to 1000 | < 100 | 101 to 1000 | < 100
Cc1cc(F)ccc1C1(O)CN(C(=O)c2ccc(NS(=O)(=O)c3cccc4cccnc34)cc2)C1 [Compound 12, N-(4-(3-(4-fluoro-2-methylphenyl)-3-hydroxyazetidine-1-carbonyl)phenyl)quinoline-8-sulfonamide] | 101 to 1000 | < 100 | 101 to 1000 | < 100
O=C(c1ccc(NS(=O)(=O)c2cccc3cccnc23)cc1)N1CC(O)(c2cccc(F)c2)C1 [Compound 4, N-(4-(3-(3-fluorophenyl)-3-hydroxyazetidine-1-carbonyl)phenyl)quinoline-8-sulfonamide] | 1010 to 10000 | 101 to 1000 | < 100 | 101 to 1000
CCCCC1(O)CN(C(=O)c2ccc(NS(=O)(=O)c3cccc4cccnc34)cc2)C1 [Compound 16, N-(4-(3-butyl-3-hydroxyazetidine-1-carbonyl)phenyl)quinoline-8-sulfonamide] | 101 to 1000 | < 100 | 101 to 1000 | 101 to 1000
O=C(c1ccc(NS(=O)(=O)c2cccc3cccnc23)cc1)N1CC(O)(c2cccnc2C(F)(F)F)C1 [Compound 17, N-(4-(3-hydroxy-3-(2-(trifluoromethyl)pyridin-3-yl)azetidine-1-carbonyl)phenyl)quinoline-8-sulfonamide] | 101 to 1000 | < 100 | 101 to 1000 | 
O=C(c1ccc(NS(=O)(=O)c2cccc3cccnc23)c(F)c1)N1CC(O)(Cc2ccccc2)C1 [Compound 46, N-(4-(3-benzyl-3-hydroxyazetidine-1-carbonyl)-2-fluorophenyl)quinoline-8-sulfonamide] | 1010 to 10000 | 101 to 1000 |  | 101 to 1000
O=C(c1ccc(NS(=O)(=O)c2ccccc2Cl)cc1)N1CC(O)(Cc2ccccc2)C1 [Compound 49, N-(4-(3-benzyl-3-hydroxyazetidine-1-carbonyl)phenyl)-2-chlorobenzenesulfonamide] | > 10000 | 1010 to 10000 |  | 1010 to 10000
O=C(c1ccc(NS(=O)(=O)c2cccc3cnccc23)cc1)N1CC(O)(c2cccc(C(F)(F)F)c2)C1 [Compound 43, N-(4-(3-hydroxy-3-(3-(trifluoromethyl)phenyl)azetidine-1-carbonyl)phenyl)isoquinoline-5-sulfonamide] | > 10000 | 1010 to 10000 |  | 1010 to 10000
CCC1(O)CN(C(=O)c2ccc(NS(=O)(=O)c3cccc4cccnc34)cc2)C1 [Compound 34, N-(4-(3-ethyl-3-hydroxyazetidine-1-carbonyl)phenyl)quinoline-8-sulfonamide] | > 10000 | 1010 to 10000 |  | 1010 to 10000
O=C(c1ccc(NS(=O)(=O)c2cccc3cccnc23)cc1)N1CC(O)(CCCO)C1 [Compound 40, N-(4-(3-hydroxy-3-(3-hydroxypropyl)azetidine-1-carbonyl)phenyl)quinoline-8-sulfonamide] | > 10000 | 1010 to 10000 |  | 1010 to 10000
CC(C)(C)C1(O)CN(C(=O)c2ccc(NS(=O)(=O)c3cccc4cccnc34)cc2)C1 [Compound 31, N-(4-(3-(tert-butyl)-3-hydroxyazetidine-1-carbonyl)phenyl)quinoline-8-sulfonamide] | > 10000 | 1010 to 10000 |  | 1010 to 10000
CC(C)CC1(O)CN(C(=O)c2ccc(NS(=O)(=O)c3cccc4cccnc34)cc2)C1 [Compound 35, N-(4-(3-hydroxy-3-isobutylazetidine-1-carbonyl)phenyl)quinoline-8-sulfonamide] | 1010 to 10000 | 101 to 1000 |  | 101 to 1000
O=C(c1ccc(NS(=O)(=O)c2cccc3cccnc23)cc1)N1CC(O)(Cc2ccccn2)C1 [Compound 55, N-(4-(3-hydroxy-3-(pyridin-2-ylmethyl)azetidine-1-carbonyl)phenyl)quinoline-8-sulfonamide] | 1010 to 10000 | 101 to 1000 |  | 101 to 1000
CCc1ccccc1C1(O)CN(C(=O)c2ccc(NS(=O)(=O)c3cccc4cccnc34)cc2)C1 [Compound 13, N-(4-(3-(2-ethylphenyl)-3-hydroxyazetidine-1-carbonyl)phenyl)quinoline-8-sulfonamide] | 101 to 1000 | < 100 | < 100 | 
O=C(c1ccc(NS(=O)(=O)c2cccc3cccnc23)cc1)N1CC(O)(CC2CC2)C1 [Compound 37, N-(4-(3-(cyclopropylmethyl)-3-hydroxyazetidine-1-carbonyl)phenyl)quinoline-8-sulfonamide] | > 10000 | 101 to 1000 |  | 101 to 1000
O=C(c1ccc(NS(=O)(=O)c2cccc3cccnc23)cc1F)N1CC(O)(Cc2ccccc2)C1 [Compound 45, N-(4-(3-benzyl-3-hydroxyazetidine-1-carbonyl)-3-fluorophenyl)quinoline-8-sulfonamide] | 1010 to 10000 | 101 to 1000 |  | 101 to 1000
O=C(c1ccc(NS(=O)(=O)c2cccc(Cl)c2Cl)cc1)N1CC(O)(Cc2ccccc2)C1 [Compound 52, N-(4-(3-benzyl-3-hydroxyazetidine-1-carbonyl)phenyl)-2,3-dichlorobenzenesulfonamide] | > 10000 | 1010 to 10000 |  | 1010 to 10000
CC(O)CC1(O)CN(C(=O)c2ccc(NS(=O)(=O)c3cccc4cccnc34)cc2)C1 (stereo not drawn) [Compound 41, N-(4-(3-hydroxy-3-(2-hydroxypropyl)azetidine-1-carbonyl)phenyl)quinoline-8-sulfonamide] | > 10000 | 1010 to 10000 |  | 1010 to 10000
O=C(c1ccc(NS(=O)(=O)c2cccc3cccnc23)cc1)N1CC(O)(c2ncccc2F)C1 [Compound 22, N-(4-(3-(3-fluoropyridin-2-yl)-3-hydroxyazetidine-1-carbonyl)phenyl)quinoline-8-sulfonamide] | 1010 to 10000 | 101 to 1000 |  | 101 to 1000
